Earlier results, collected in PMC3157551 (Bioconjugate chemistry, 2011).

## avidin: avidin (Pierce-Thermo), 128 amino acid biotin-binding protein
  dissociation half-time of biotin from avidin: 89 days
